Here are results for twelve compounds from patent publication US20190330189A1, “ANTIBACTERIAL COMPOUNDS” (Janssen Sciences Ireland UC, priority 2015, published 2019).

In brackets after ≈: the same amount, converted by molar mass. Read-outs that look alike come from different tables or passages of the source.

Series [1] deals with Mycobacterium tuberculosis strain EH 4.0 (361.269). The series is described as follows: Test 4: MIC determination, resazurin fluorescence, strain EH 4.0. It counts as cell-based. The settings on record: Mycobacterium tuberculosis, read-out: pIC50, Test 4, M. tuberculosis strain EH 4.0 (361.269) (converted). A digest of the protocol: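 M. tuberculosis EH 4.0 (361.269) from stationary-phase culture, ~5×10^5 CFU/well in 7H9 medium with compound dilutions. Incubated 7 days at 37 °C, then resazurin added; MIC from fluorescence.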
A general note: Alamar Blue is a resazurin reagent that responds to reducing activity.

The test system of series [2] is Mycobacterium tuberculosis strain H37Rv. Put plainly: Test 1: MIC determination, resazurin fluorescence, M. tuberculosis H37Rv. Type of series: cell-based. The conditions noted are these: Mycobacterium tuberculosis, H37RV.
Series [3] concerns M. tuberculosis H37Rv. The conditions noted are these: strain M. tuberculosis H37Rv, inside macrophages; cited from earlier work.
Series [4] has as its system replicating and non-replicating bacteria. The settings on record: cited from earlier work.
[5] abbreviates: Test 1, M. tuberculosis H37Rv, first test, read-out: pIC50 (converted).
[6] abbreviates: Test 1, repeated (2nd) test, read-out: pIC50 * (converted).
The mark [7] stands for this setting: Test 1, repeated (3rd) test, read-out: pIC50 ** (converted).

One may read the melting point as the temperature, or range, at which the solid turns liquid. Compound `CCc1nc2ccc(Cl)cn2c1C(=O)NCc1ccc(N2CC3(C2)CN(c2ccc(OC(F)(F)F)cc2)C3)cc1` [Compound 4] registered a melting point of 184.57 °C. Further, the IC50 in series [1] was 5.01 nM. Besides, the IC50 in series [2] (setting [5]) is 120 nM.
`CCc1nc2ncc(Cl)cn2c1C(=O)NCc1ccc(N2CC3(C2)CN(c2ccc(OC(F)(F)F)cc2)C3)cc1` [Compound 5]: the melting point worked out at 242.43 °C. Also, in series [1], the IC50 is 31.6 nM. The IC50 in series [2] (setting [5]) was 69.2 nM. The IC50 in series [2] (setting [6]) is 74.1 nM. Moreover, the IC50 in series [2] (setting [7]) was 74.1 nM.
Regarding `CCc1nc2sc(C)cn2c1C(=O)NCc1ccc(N2CC3(CCC3)C2)cc1` [Compound 12], the melting point turned out to be 300 °C. Besides, in series [1], the IC50 was 31.6 nM. Also, the IC50 in series [2] (setting [5]) is 129 nM. Besides, the IC50 in series [2] (setting [6]) was 70.8 nM. Also, the IC50 in series [2] (setting [7]) was 107 nM.
Regarding `CCc1nc2ccc(Cl)cn2c1C(=O)NCc1ccc(N2CC3(CC(c4ccnn4C)C3)C2)cc1` [Compound 158], the melting point stood at 101.95 °C. Moreover, the IC50 in series [1] is 398 nM.
Taken in the same sequence, the figures for `CCc1nn2ccccc2c1C(=O)NCc1ccc(C2CC3(C2)CN(c2ccc(S(F)(F)(F)(F)F)cc2)C3)cc1` [Compound 159] were 177.08 °C and 39.8 nM.
With `Cc1nn2ccccc2c1C(=O)NCc1ccc(C2CC3(C2)CN(c2ccc(S(F)(F)(F)(F)F)cc2)C3)cc1` [Compound 160], the melting point is 166.29 °C. Besides, the IC50 in series [1] is 31.6 nM.
`CCc1nn2ccccc2c1C(=O)NCc1ccc(N2CC3(CC(c4ccc(OC(F)(F)F)cc4)C3)C2)cc1` [Compound 161] had a melting point of 126.57 °C. Moreover, in series [1], the IC50 is 2510 nM.
The compound `Cc1nn2ccccc2c1C(=O)NCc1ccc(N2CC3(C2)CN(c2ccc(S(F)(F)(F)(F)F)cc2)C3)cc1` [Compound 162] yielded a melting point of 238.06 °C. Also, the IC50 in series [1] is 7940 nM.
Take `CCc1nc2ccc(Cl)cn2c1C(=O)NCc1ccc(N2CC3(CCC3)C2)cc1` [Compound 163]: the melting point turned out to be 142.39 °C. Also, the IC50 in series [1] was 7940 nM.
`CCc1nc2ccc(Cl)cn2c1C(=O)NCC1CC2(C1)CN(c1ccc(OC(F)(F)F)cc1)C2` [Compound 164] returned a melting point of 165.12 °C. Further, in series [1], the IC50 is 7940 nM.
`CCc1nn2ccccc2c1C(=O)NCC1CC2(C1)CN(c1ccc(OC(F)(F)F)cc1)C2` [Compound 165] gave a melting point of 150.69 °C. Besides, the IC50 in series [1] is 7940 nM.
As for `CCc1nc2ccc(Cl)cn2c1C(=O)NCc1ccc(N2CCC(c3ccc(OC(F)(F)F)cc3)CC2)cc1` [Compound Q203, Q203], the MIC50 in series [3] is given as 0.28 nM (≈ 0.156 ng/mL). Besides, the “activity against replicating and non-replicating bacteria” value in series [4] is listed as “highly active”.
